Read-outs that look alike come from different tables or passages of the source.
Experiments:
[1] = tested on: HBV replication in HepAD38 cells; experiment: Anti-HBV replication assay in HepAD38 cells (QPCR of extracellular HBV DNA); assay type: cell-based, HBV (genotype D, serotype ayw); conditions: Hepatitis B virus
Protocol: The anti-HBV activity of the Capsid Assembly Modulators (CAMs) was evaluated in a cell based assay utilizing the human hepatoma cell line HepAD38 (Ladner, S K., et al., 1998). HepAD38 cells were derived from the parental line, HepG2, that were stably transfected with a construct containing an HBV genome (genotype D, serotype ayw) under the control of a tetracycline repressible CMV promoter. Upon removal of tetracycline, viral pre-genomic RNA (pgRNA) and mRNAs are expressed and infectious viral particles are assembled and secreted into the culture medium providing a reliable, robust system to measure multiple steps of the HBV life cycle. Disruption of capsid formation results in reduced levels of DNA-containing virus particles that are released into the culture supernatant. To quantify the effect of CAMs on HBV replication, we developed a sensitive QPCR-based assay that measures extracellular HBV DNA levels upon treatment of HepAD38 cells with various concentrations of test compounds.
HepAD38 cells were maintained in DMEM/F12 medium containing 10% FBS, 400 μg/mL G418 and 0.3 μg/mL tetracycline (tet+ media) to maintain repression of HBV replication. To evaluate each compound, HepAD38 cells were seeded into 24-well collagen coated culture plates (Corning BioCoat) at a density of 200,000 cells per well in 1 mL of medium without tetracycline (tet-media) and allowed to adhere overnight at 37° C., 5% CO2 in a humidified incubator. The following day, media was refreshed and a dose range of each compound was prepared by performing 1 log10 serial dilutions in 100% DMSO at 200× the desired assay concentration. Dilutions were then added to the cells resulting in a final dose range of 1 μM to 10 μM and the plates were returned to the incubator. Following 7 days of incubation, culture supernatants were harvested and HBV DNA levels were evaluated by QPCR and compared to the vehicle treated control wells (i.e. DMSO alone).
To quantify HBV DNA levels, cell culture supernatants were diluted 1:10 in sterile, nuclease-free water (Gibco). The diluted supernatants were subsequently added to a PCR master mix containing 1× Roche Light Cycler Master Mix, 0.5 μM forward primer, 0.5 μM reverse primer (Fwd: 5′-[…] (SEQ ID NO 1); Rev: 5′-[…] (SEQ ID NO 2)), 0.2 μM Roche Universal Probe Library Probe 25. The volume was brought to 20 μL with nuclease-free water and amplification of the HBV target sequence was performed using a Roche LightCycler 480 QPCR instrument. PCR extended out to 45 cycles with each cycle consisting of a denaturation step at 95° C. for 10 sec., followed by an annealing step at 60° C. for 10 sec. and a brief extension step at 72° C. for 1 sec.
Extracellular HBV DNA levels, expressed in copies/mL, were determined by comparison to a standard curve (10^2-10^9 copies/mL) using the Roche LightCycler analysis software. These values were subsequently converted to percent inhibition of HBV replication by dividing the HBV DNA levels in the experimental samples with those obtained from the vehicle control (˜1-2×10^5 copies/mL). Potency, expressed as an EC50 (the effective concentration required to inhibit 50% of HBV replication), was calculated from the dose-response curve using a 4-parameter non-linear regression analysis (GraphPad Prism). The nucleoside analog inhibitor entecavir was used as a positive control to validate each assay run. The EC50 value of entecavir in the HepAD38 assay was 0.5 nM, as previously reported in the literature.

[2] = In vitro cytotoxicity assay (MTT cell viability) in HepG2 cells; assay type: cell-based, human; conditions: human
Protocol: To evaluate antiviral selectivity, the cytotoxic activity of each compound was determined using a standard cell viability assay performed on the parental HepG2 cell line. Cell viability was determined by measuring the conversion of 3-(4,5-dimethylthiazol-2-yl)-2,5-diphenyltetrazolium bromide (MTT) to the insoluble formazan salt crystal that occurs in live cells. Briefly, HepG2 cells were seeded in 96-well plates at a density of 20,000 cells per well in EMEM+10% FBS (complete growth medium) and allowed to adhere overnight in a 37° C., 5% CO2 humidified incubator. The next day, test agents were prepared by performing 8 half-log10 serial dilutions in 100% DMSO at 200× the final desired concentration in the assay. Compounds were tested over a range of concentrations from 30 μM to 1.0 nM in the assay. HepG2 cells were incubated in the presence of various concentrations of CAMs for 7 days in a 37° C., 5% CO2 humidified incubator. At the completion of the 7-day incubation period, MTT reagent was added to each well and the mixture was incubated for an additional 3-4 hours. At the completion of the incubation period, all wells were aspirated to remove the culture medium. The formazan crystals were solubilized from the cell monolayers with 100% DMSO. Plates were briefly mixed on an orbital shaker and absorbance was measured at 492 nm using a Perkin-Elmer EnVision multi-label plate reader. All absorbance values were converted to a percentage of the signal obtained from the vehicle treated controls. Absorbance values at 492 nm are directly proportional to the number of viable cells present in the sample. A CC50 value (cytotoxic concentration that results in loss of 50% cell viability) was calculated from the dose-response curve by 4-parameter, non-linear regression analysis using the GraphPad Prism software. The positive control compound, staurosporine, reduced the viability of HepG2 cells in a dose-dependent manner (CC50=100 nM).

[3] = 168 h, 7 days incubation, extracellular HBV DNA by QPCR, read-out: Anti-HBV EC50

Compound	EC50 [1, 3] [nM]	CC50 at 7 days [2] [µM]	EC50 ([1]; positive control, read-out: EC50 in the HepAD38 assay) [nM]	CC50 at 7 days ([2]; positive control, HepG2 cells, 7 days, MTT, read-out: CC50 (loss of 50% cell viability)) [µM]
Cc1cc(NC(=O)c2c(C)c(C(=O)C(=O)N[C@]3(C(F)(F)F)CC[C@H](O)CC3)n(C)c2C)ccc1F [Example 282, N-(4-fluoro-3-methylphenyl)-5-(2-(((1s,4s)-4-hydroxy-1-(trifluoromethyl)cyclohexyl)amino)-2-oxoacetyl)-1,2,4-trimethyl-1H-pyrrole-3-carboxamide]	< 50	> 30		
Cc1cc(NC(=O)c2cc(C(=O)C(=O)N[C@H](C(N)=O)[C@@H](C)O)n3c2CCCC3)ccc1F [Example 401]	> 1000	> 30		
Cc1cc(NC(=O)c2c(Cl)c(C(=O)C(=O)N[C@H](C)C(F)(F)F)n3c2CCC3)cnc1F [Example 576, (R)-6-chloro-N-(6-fluoro-5-methylpyridin-3-yl)-5-(2-oxo-2-((1,1,1-trifluoropropan-2-yl)amino)acetyl)-2,3-dihydro-1H-pyrrolizine-7-carboxamide]	50 to 499	5 to 30		
CC(=O)N1CC(C)(NC(=O)C(=O)c2c(C)c(C(=O)Nc3ccc(F)c(C)c3)c(C)n2C)C1 [Example 645, 5-(2-((1-acetyl-3-methylazetidin-3-yl)amno)-2-oxoacetyl)-N-(4-fluoro-3-methylphenyl)-1,2,4-trimethyl-1H-pyrrole-3-carboxamide]	< 50	> 30		
Cc1cc(NC(=O)c2c(C)c(C(=O)C(=O)NC3CCOCC3(C)C)n(C)c2C)ccc1F (centres unmarked) [Example 281]	< 50	5 to 30		
Cc1cc(NC(=O)c2c(C)c(C(=O)C(=O)NC3(C)CC(F)(F)C3)n(C)c2C)cnc1F [Example 206, 5-(2-((3,3-difluoro-1-methylcyclobutyl)amino)-2-oxoacetyl)-N-(6-fluoro-5-methylpyridin-3-yl)-1,2,4-trimethyl-1H-pyrrole-3-c carboxamide]	< 50	> 30		
Cc1cc(NC(=O)c2c(Cl)c(C(=O)C(=O)NC(C)(C)CO)n3c2CCC3)cnc1F [Example 575, 6-chloro-N-(6-fluoro-5-methylpyridin-3-yl)-5-(2-((1-hydroxy-2-methylpropan-2-yl)amino)-2-oxoacetyl)-2,3-dihydro-1H-pyrrolizine-7-carboxamide]	500 to 1000	> 30		
Cc1cc(NC(=O)c2c(Cl)c(C(=O)C(=O)NC3(CO)CC(F)(F)C3)n3c2CCCC3)ccc1F [Example 496, 2-chloro-3-(2-((3,3-difluoro-1-(hydroxymethyl)cyclobutyl)amino)-2-oxoacetyl)-N-(4-fluoro-3-methylphenyl)-5,6,7,8-tetrahydroindolizine-1-carboxamide]	< 50	5 to 30		
Cc1cc(NC(=O)c2c(C)c(C(=O)C(=O)NOCC(F)(F)F)n(C)c2C)ccc1F [Example 157, N-(4-fluoro-3-methylphenyl)-1,2,4-trimethyl-5-(2-oxo-2-((2,2,2-trifluoroethoxy)amino)acetyl)-1H-pyrrole-3-carboxamide]	50 to 499	> 30		
Cc1cc(NC(=O)c2c(Cl)c(C(=O)C(=O)N[C@H]3CCC[C@H]3O)n3c2CCCC3)ccc1F [Example 506, 2-chloro-N-(4-fluoro-3-methylphenyl)-3-(2-(((1S,2R)-2-hydroxycyclopentyl)amino)-2-oxoacetyl)-5,6,7,8-tetrahydroindolizine-1-carboxamide]	500 to 1000	5 to 30		
Cc1cc(NC(=O)c2c(C)c(C(=O)C(=O)NC3(C(F)(F)F)CC3)n(C)c2C)cnc1F [Example 234, N-(6-fluoro-5-methylpyridin-3-yl)-1,2,4-trimethyl-5-(2-oxo-2-((1-(trifluoromethyl)cyclopropyl)amino)acetyl)-1H-pyrrole-3-carboxamide]	< 50	> 30		
Cc1cc(NC(=O)c2c(Cl)c(C(=O)C(=O)NC(C)(C)C(F)(F)F)n3c2CCC3)cnc1F [Example 573, 6-chloro-N-(6-fluoro-5-methylpyridin-3-yl)-5-(2-oxo-2-((1,1,1-trifluoro-2-methylpropan-2-yl)amino)acetyl)-2,3-dihydro-1H-pyrrolizine-7-carboxamide]	50 to 499	> 30		
Cc1cc(NC(=O)c2c(Cl)c(C(=O)C(=O)N[C@@H](C)C(F)(F)F)n3c2CCCC3)cnc1F [Example 731, (S)-2-chloro-N-(6-fluoro-5-methylpyridin-3-yl)-3-(2-oxo-2-((1,1,1-trifluoropropan-2-yl)amino)acetyl)-5,6,7,8-tetrahydroindolizine-1-carboxamide]	< 50	5 to 30		
Cc1cc(NC(=O)c2c(C)c(C(=O)C(=O)N[C@H]3CCN(S(C)(=O)=O)C3)n(C)c2C)ccc1F [Example 667, (S)-N-(4-fluoro-3-methylphenyl)-1,2,4-trimethyl-5-(2-((1-(methylsulfonyl)pyrrolidin-3-yl)amino)-2-oxoacetyl)-1H-pyrrole-3-carboxamide]	< 50	0.5 to 4.99		
Cc1cc(NC(=O)c2c(C)c(C(=O)C(=O)NC(C)(C)CO)n3c2CCCC3)cnc1F [Example 478, N-(6-fluoro-5-methylpyridin-3-yl)-3-(2-((1-hydroxy-2-methylpropan-2-yl)amino)-2-oxoacetyl)-2-methyl-5,6,7,8-tetrahydroindoliizine-1-carboxamide]	> 1000	> 30		
O=C(N[C@H]1COC[C@@H]1O)C(=O)c1c(Cl)c(C(=O)Nc2ccc(F)c(F)c2)c2n1CCCC2 [Example 518, 2-chloro-N-(3,4-difluorophenyl)-3-(2-(((3S,4R)-4-hydroxytetrahydrofuran-3-yl)amino)-2-oxoacetyl)-5,6,7,8-tetrahdyroindolinzie-1-carboxamide]	50 to 499	5 to 30		
Cc1c(C(=O)Nc2ccc(F)c(Cl)c2)c(C)n(C)c1C(=O)C(=O)Nc1ccc(F)cn1 [Example 310, N-(3-chloro-4-fluorophenyl)-5-(2-((5-fluoropyridin-2-yl)amino)-2-oxoacetyl)-1,2,4-trimethyl-1H-pyrrole-3-carboxamide]	< 50			
C=C1[C@H](CO)[C@@H](O)C[C@@H]1n1cnc2c(=O)[nH]c(N)nc21 [entecavir, reference compound]			0.5	
CN[C@@H]1C[C@H]2O[C@@](C)([C@@H]1OC)n1c3ccccc3c3c4c(c5c6ccccc6n2c5c31)C(=O)NC4 [staurosporine, reference compound]				0.1
